We go through five compounds from patent US8030481B2, “Stevioside polymorphic and amorphous forms, methods for their formulation, and uses” (The Coca-Cola Company, priority 2007, dated 2011).

A short description of series [1]: moisture content (Karl Fischer analysis). It counts as physicochemical. As for the experimental part: Karl-Fischer analysis also was performed on the stevioside compositions obtained hereinbelow to determine the water content using a Mettler Toledo DL39 Karl Fischer titrator. Approximately 11-56 mg of sample were dissolved in approximately 3.5-3.7 g of dry Hydranal-Coulmat AD. Approximately 0.9-1.0 g of the resulting solution was placed in the KF titration vessel containing Hydranal-Coulomat AD and mixed for 10 seconds to ensure dissolution. The sample was titrated by means of a generator electrode which produces iodine by electrochemical oxidation: 2 I^−→I2+2e. The experiments were repeated in triplicate to ensure reproducibility.

Series [2] can be described thus: rate of dissolution in H2O at 25° C. The note with it: for Rate of dissolution in H2O at 25° C.: time: time for the amount printed in the same cell (see E2); for Rate of dissolution in H2O at 25° C.: amount dissolved: within the time printed in the same cell (see E3). It counts as physicochemical.
The conditions of series [3]: room temperature; from U.S. Pat. No. 4,082,858; cited from earlier work.

Where only a bound is given, the exact number is not on record here.

`C=C1C[C@@]23CC[C@H]4[C@@](C)(CCC[C@@]4(C)C(=O)O[C@@H]4O[C@H](CO)[C@@H](O)[C@H](O)[C@H]4O)[C@@H]2CC[C@]1(O[C@@H]1O[C@H](CO)[C@@H](O)[C@H](O)[C@H]1O[C@@H]1O[C@H](CO)[C@@H](O)[C@H](O)[C@H]1O)C3` [Form 4, stevioside]: in series [1], the Moisture content is listed as around 3%. Also, in series [2], the “Rate of dissolution in H2O at 25° C.: time” value (shortened to “Rate of dissolution … time”) was below 1.0 min and the “Rate of dissolution in H2O at 25° C.: amount dissolved” value (shortened to “Rate … amount dissolved”) turned out to be 40.0% in. Further, in series [2] (in words), the “rate of dissolution as compared to the polymorph forms of stevioside” value is “improved rate of dissolution”.

Turning to `C=C1C[C@@]23CC[C@H]4[C@@](C)(CCC[C@@]4(C)C(=O)O[C@@H]4O[C@H](CO)[C@@H](O)[C@H](O)[C@H]4O)[C@@H]2CC[C@]1(O[C@@H]1O[C@H](CO)[C@@H](O)[C@H](O)[C@H]1O[C@@H]1O[C@H](CO)[C@@H](O)[C@H](O)[C@H]1O)C3` [Form 2B, stevioside], the Moisture content in series [1] is on record as below 4%. Also, in series [2], the “Rate of dissolution … time” value was below 1.0 min and the “Rate … amount dissolved” value came out at 10.0% in.

Regarding `C=C1C[C@@]23CC[C@H]4[C@@](C)(CCC[C@@]4(C)C(=O)O[C@@H]4O[C@H](CO)[C@@H](O)[C@H](O)[C@H]4O)[C@@H]2CC[C@]1(O[C@@H]1O[C@H](CO)[C@@H](O)[C@H](O)[C@H]1O[C@@H]1O[C@H](CO)[C@@H](O)[C@H](O)[C@H]1O)C3` [stevioside, Stevioside], the water solubility result in series [3] is “approximately 1.25 g/L”.

The compound `C=C1C[C@@]23CC[C@H]4[C@@](C)(CCC[C@@]4(C)C(=O)O[C@@H]4O[C@H](CO)[C@@H](O)[C@H](O)[C@H]4O)[C@@H]2CC[C@]1(O[C@@H]1O[C@H](CO)[C@@H](O)[C@H](O)[C@H]1O[C@@H]1O[C@H](CO)[C@@H](O)[C@H](O)[C@H]1O)C3` [Form 1, stevioside] registered a Moisture content in series [1] above 5%. Moreover, in series [2], the “Rate of dissolution … time” value amounted to 30 min and the “Rate … amount dissolved” value was below 0.075% in.

Compound `C=C1C[C@@]23CC[C@H]4[C@@](C)(CCC[C@@]4(C)C(=O)O[C@@H]4O[C@H](CO)[C@@H](O)[C@H](O)[C@H]4O)[C@@H]2CC[C@]1(O[C@@H]1O[C@H](CO)[C@@H](O)[C@H](O)[C@H]1O[C@@H]1O[C@H](CO)[C@@H](O)[C@H](O)[C@H]1O)C3` [Form 2 A, stevioside] came in with a Moisture content in series [1] below 3%. In series [2], the “Rate of dissolution … time” value is recorded as 2 min and the “Rate … amount dissolved” value is given as below 0.6% in.
